Results published in paper PMC6838683, “Discovery of Human Signaling Systems: Pairing Peptides to G Protein-Coupled Receptors” (Cell, 2019).
Positions of bridges follow the written chain, without caps; N, C: chain ends. Residues, ends and D or L forms follow the SMILES beside them.

How the values were obtained:
HA-OGR1 (GPR68) = target: T1, HA-OGR1 (GPR68) (Homo sapiens, UniProt Q15743); assay: Ca2+ mobilization assay (Fluo-4); format: cell-based; conditions: GPR68, calcium mobilization, mean, SEM and n (3-5) in separate columns
T1 construct: HA; expressed in transfected cells
T1 sequence (Q15743 whole entry): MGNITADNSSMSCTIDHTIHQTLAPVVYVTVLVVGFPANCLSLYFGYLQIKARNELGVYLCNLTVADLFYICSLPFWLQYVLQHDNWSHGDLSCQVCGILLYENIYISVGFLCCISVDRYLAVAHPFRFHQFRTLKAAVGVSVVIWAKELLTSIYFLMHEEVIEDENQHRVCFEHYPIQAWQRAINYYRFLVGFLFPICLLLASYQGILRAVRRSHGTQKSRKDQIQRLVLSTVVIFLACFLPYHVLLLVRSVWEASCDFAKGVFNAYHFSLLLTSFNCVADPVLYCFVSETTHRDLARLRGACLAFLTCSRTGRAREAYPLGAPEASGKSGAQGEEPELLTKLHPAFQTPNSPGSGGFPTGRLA
Description: Peptide-dependent Ca^2+ mobilization responses were measured in HEK293 stable cell lines (HA-OGR1 (GPR68) and vector pcDNA) ([Saxena et al., 2012]) that were seeded in 96-well plates (1 × 10^5 cells/well) and cultured at 37°C with 5% CO2 to near confluence in DMEM with 10% FBS (Corning). Six hours prior to assay, medium was changed to pH 8.0 or pH 7.4 HAM’s F12 Nutrient Mixture (GIBCO) without FBS and transferred to a 37°C incubator without CO2. One hour prior to stimulation, cells were incubated in pH 8.0 or pH 7.4 HBSS with Ca^2+ and Mg^2+ (GIBCO), supplemented with 15 mM HEPES, 2 μM Fluo-4 AM (Invitrogen) and 1.5 mM probenecid ([…] to prevent Fluo-4 efflux) as described previously ([Pera et al., 2018]). Indicated peptides were pipetted using an automated system and emission signal was recorded at 525 nm after excitation at 485 nm using Flex Station III (Molecular Devices). Ca^2+ mobilization responses were determined by subtracting basal fluorescence from the net peak of agonist-induced fluorescence. Ionomycin (1 μM) was used to calculate the maximum Ca^2+ signal to normalize peptide-mediated responses.

GPR68 [1] = target: T2, GPR68 (Homo sapiens, UniProt Q15743); assay: Dynamic mass redistribution (DMR), concentration-response; format: cell-based; design: hIL-2Ra signal peptide (N); expressed in transfected cells; conditions: GPR68; dynamic mass redistribution, concentration-response; mean, SEM and n (3-4)
Outline: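 Doxycycline-induced (0.1 μg/ml) SNAP-tagged receptors in TREx 293 cells, equilibrated 90 min at 22°C in HEPES-buffered HBSS, pH 7.4, with 0.1% DMSO. Peptide-evoked optical wavelength shift recorded for 60 min at 22°C, buffer/solvent corrected and quantified as area under the curve. Mean ± SEM of at least 3 independent experiments.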
Target sequence in this assay (Q15743 2-365 limits assumed): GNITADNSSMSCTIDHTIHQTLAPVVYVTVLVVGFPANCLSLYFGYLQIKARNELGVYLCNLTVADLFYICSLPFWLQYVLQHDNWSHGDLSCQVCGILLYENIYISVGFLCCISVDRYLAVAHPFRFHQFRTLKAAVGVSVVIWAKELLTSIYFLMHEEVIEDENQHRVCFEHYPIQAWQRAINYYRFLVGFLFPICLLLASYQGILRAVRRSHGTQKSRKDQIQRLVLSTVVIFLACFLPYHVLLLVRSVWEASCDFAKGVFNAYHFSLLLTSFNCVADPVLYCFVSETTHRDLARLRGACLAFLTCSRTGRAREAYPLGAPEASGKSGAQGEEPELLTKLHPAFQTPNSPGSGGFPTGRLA

GPR68 [2] = target: T2, GPR68; assay: Real-time receptor internalization (TR-FRET), concentration-response; format: cell-based; design: hIL-2Ra signal peptide (N); expressed in transfected cells; conditions: GPR68; real-time internalization; mean, SEM and n (3)
Outline: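 Doxycycline-induced SNAP-tagged receptor cells had surface receptors labelled with Lumi4-Tb and fluorescein-O-acetic acid added. TR-FRET internalization after peptide addition was recorded for 60 min at 37°C (ex 340, em 520/615 nm). Area under the curve, normalized to plate average, gave concentration-response curves.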
Target sequence in this assay (Q15743 2-365 limits assumed): as above

GPR68 [3] = target: T2, GPR68; assay: GloSensor cAMP assay (Gs), allosteric operational model fitting; format: cell-based; design: expressed in transfected cells; host or cells: HEK293T, transient (PEI), co-transfected with GloSensor cAMP plasmid; conditions: GPR68; GloSensor cAMP; mean, SEM and n (4)
Description: GPR68-mediated cAMP signaling was measured using GloSensor cAMP assays as published previously ([Huang et al., 2015], [Yu et al., 2019]) with modifications as indicated below. Calcium- and magnesium-free HBSS was supplemented with different organic buffer reagents for different pH solutions, 20 mM 2-(N-morpholino)ethanesulfonic acid (MES, Alfa Aesar) for pH 6.00 – 6.70, 20 mM 4-(2-hydroxyethyl)-1-piperazineethanesulfonic acid (HEPES, Fisher) for pH 6.80 – 8.20, and 20 mM (tris(hydroxymethyl)methylamino)propanesulfonic acid (TAPS) for pH 8.30 – 8.60. The phosphodiesterase (PDE) inhibitor Ro 20-1724 (10 μM final, Cayman Chemical) was included in pH buffers to eliminate potential effect of PDE […]. HEK293T cells were transfected with a modified polyethylenimine (PEI, Polysciences) transfection method ([Longo et al., 2013]). For a 15-cm dish of HEK293T cells with 25 mL growth medium, 8 μg receptor DNA and 8 μg GloSensor DNA (Promega) were mixed in 1 mL of Opti-MEM medium followed by addition of 80 μL PEI reagents. The mixture was added to cells after 20 min incubation at room temperature. Overnight transfected cells were plated in poly-L-lysine (Sigma) coated 384-well white clear bottom plates (Greiner Bio-One, #781098) using DMEM (Corning) + 1% dialyzed FBS (Omega Scientific) for at least 6 h (up to 24 h). Cells were removed of medium before receiving 20 μL/well of 3.5 mM luciferin (Goldbio) prepared in assay buffer (HBSS, 20 mM TAPS, pH 8.40, 10 μM Ro 20-1724) for 1 h at 37°C. Luciferin loading solutions were removed and premixed drug solutions at desired pH conditions were added to cells (25 μL/well). Luminescence was measured 25-30 min after drug application. Results were normalized (basal and maximum responses in the absence of modulator were set to be 0 and 100%) and pooled for analysis using GraphPad Prism.
All of the other parameters, including allosteric affinity cooperativity (α), allosteric modulator binding affinity KB, orthosteric agonist (protons) efficacy τA, system maximal response, and slope factor n were all globally shared for all datasets for each modulator. […] We therefore used an allosteric index, log(αβ/KB) ([Kenakin, 2017a]), which contains both allosteric binding affinity and cooperativity, to quantify the overall allosteric activity.
Target sequence in this assay (Q15743 whole entry): as the sequence (Q15743 whole entry) above

MAS1 = target: T3, MAS1 (Homo sapiens, UniProt P04201); assay: β-arrestin recruitment (Tango), indicative pairing; format: cell-based; conditions: mean, n = 3
T3 construct: host or cells: HTLA cells (HEK293-derived)
T3 sequence (P04201 1-325): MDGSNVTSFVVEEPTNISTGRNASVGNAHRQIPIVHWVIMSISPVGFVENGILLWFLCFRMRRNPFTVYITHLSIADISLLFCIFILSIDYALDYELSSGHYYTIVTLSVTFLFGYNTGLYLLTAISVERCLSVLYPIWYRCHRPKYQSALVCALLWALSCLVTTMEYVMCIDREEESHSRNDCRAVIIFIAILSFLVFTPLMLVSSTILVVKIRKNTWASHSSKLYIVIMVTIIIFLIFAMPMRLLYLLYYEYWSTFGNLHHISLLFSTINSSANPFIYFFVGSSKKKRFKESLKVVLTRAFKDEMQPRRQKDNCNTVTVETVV
Description: The peptide library was additionally screened against 120 GPCR targets in parallel, including all available orphan receptors and 27 known class A peptide receptors using the Tango assay platform ([Kroeze et al., 2015]). Briefly, HTLA cells (a HEK293 cell line stably expressing a tTA-dependent luciferase reporter and a β-arrestin2-TEV fusion gene) were plated 10,000 cells/well in poly-L-lysine–coated clear-bottom white 384-well plates in DMEM supplemented with 10% FBS, 100 U/ml penicillin and 100 μg/ml streptomycin, 2 μg/ml puromycin and 100 μg/ml hygromycin B. 24 hr later, cells were transfected with Tango GPCR constructs using the calcium phosphate method ([Jordan et al., 1996]). The next day, culture medium was changed to DMEM + 1% dFBS and 10 μM peptides were added for overnight stimulation. Bright-Glo solution (Promega) was incubated for 15–20 min at room temperature, and luminescence was counted using a Trilux luminescence counter (Wallac).
For subsequent peptide validation experiments using Tango assays, HTLA cells were transiently transfected in 10 cm dishes with the receptor of interest using polyethylenimine (PEI) ([Longo et al., 2013]). After 24 hr, 25,000 cells/well were plated in clear bottom, white-walled 384-well plates. Assays were performed as described above, with luminescence measured using an EnSpire 2300 Multimode plate reader (PerkinElmer). Luminescence counts were exported into Excel and were analyzed using GraphPad Prism 7.

[4] = tested on: 120 GPCR targets, including all available orphan receptors and 27 known class A peptide receptors; assay: Peptide library screen, β-arrestin recruitment (Tango, fold change, 10 μM); format: cell-based, human; conditions: for Active at: (activity in b-arrestin recruitment assays): Tango, receptor(s) at which the known library peptide was active, among its known GPCR target(s), validated pairings; for Confirmation of known target in Tango: repeat hitters of the peptide library screen, the value names the known receptor(s) confirmed in the β-arrestin recruitment (Tango) screen
Outline: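 HTLA cells (HEK293 with tTA-dependent luciferase and β-arrestin2-TEV) transiently transfected with Tango GPCR constructs, then stimulated overnight with 10 μM peptides in 1% dFBS medium. Luciferase luminescence read after 15–20 min Bright-Glo incubation at room temperature.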

MRGPRX2 = target: T4, MRGPRX2 (Homo sapiens, UniProt Q96LB1); assay: β-arrestin recruitment (Tango), known peptide receptors; format: cell-based; conditions: mean, n = 3
T4 construct: host or cells: HTLA cells (HEK293-derived)
T4 sequence (Q96LB1 1-330): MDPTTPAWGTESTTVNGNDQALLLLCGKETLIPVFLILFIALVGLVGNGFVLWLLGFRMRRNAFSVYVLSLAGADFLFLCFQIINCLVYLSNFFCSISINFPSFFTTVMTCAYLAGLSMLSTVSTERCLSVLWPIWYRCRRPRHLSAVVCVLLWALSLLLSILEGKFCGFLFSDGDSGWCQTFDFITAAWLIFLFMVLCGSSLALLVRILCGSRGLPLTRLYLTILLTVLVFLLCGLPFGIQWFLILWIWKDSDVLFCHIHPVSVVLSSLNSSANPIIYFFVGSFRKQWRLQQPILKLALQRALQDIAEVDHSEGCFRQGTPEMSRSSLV

Compound	DMR assays Emax (peak or AUC) (GPR68 [1])	Internalization assays Emax (AUC) (GPR68 [2])	pEC50, Tango (fold over basal) (MAS1)	Active at: (activity in b-arrestin recruitment assays) [4]	Confirmation of known target in Tango [4]	other results
CC[C@H](C)[C@H](NC(=O)[C@H](CCCNC(=N)N)NC(=O)[C@H](C)NC(=O)CNC(=O)[C@H](CCCCN)NC(=O)[C@H](CCCNC(=N)N)NC(=O)[C@@H](NC(=O)[C@H](C)NC(=O)[C@@H]1CSSC[C@H](NC(=O)[C@H](CCSC)NC(=O)[C@@H]2CCCN2C(=O)[C@@H](NC(=O)[C@H](CCC(N)=O)NC(=O)CNC(=O)[C@@H](N)Cc2ccc(O)cc2)C(C)C)C(=O)N[C@@H](CC(=O)O)C(=O)N[C@@H](C)C(=O)NCC(=O)N[C@@H](CCC(=O)O)C(=O)N[C@@H](CCC(N)=O)C(=O)N1)C(C)C)C(N)=O [139 original] (H-YGQVPMCDAGEQCAVRKGARI-NH2; disulfide 7-13; N-terminus assumed)	944453	9.4	–	–	–	Emax (HA-OGR1 (GPR68); read-out: Calcium mobilization assays Emax (% ionomycin)): 73.1%; EC50 (HA-OGR1 (GPR68); read-out: Calcium mobilization assays pEC50 (converted)): 7.08 µM
CC[C@H](C)[C@H](NC(=O)[C@H](CCCNC(=N)N)NC(=O)[C@H](C)NC(=O)CNC(=O)[C@H](CCCCN)NC(=O)[C@H](CCCNC(=N)N)NC(=O)[C@@H](NC(=O)[C@H](C)NC(=O)[C@@H]1CSSC[C@H](NC(=O)[C@H](CCSC)NC(=O)[C@@H]2CCCN2C(=O)[C@@H](NC(=O)[C@H](CCC(N)=O)NC(=O)CNC(=O)[C@@H](N)Cc2ccc(O)cc2)C(C)C)C(=O)N[C@@H](CC(=O)O)C(=O)N[C@@H](C)C(=O)NCC(=O)N[C@@H](CCC(=O)O)C(=O)N[C@@H](CCC(N)=O)C(=O)N1)C(C)C)C(N)=O [139 resynthesized] (H-YGQVPMCDAGEQCAVRKGARI-NH2; disulfide 7-13; N-terminus and C-terminus assumed)	749669	13.6	–	–	–	GloSensor cAMP assays Emax (fold change) (GPR68 [3]): 25.2 fold change
AGCKNFFWKTFTSC (disulfide) [Peptide 103]	–	–	4.33	SST2	SST2	Emax, Tango (fold over basal) (MRGPRX2): 6.6 fold over basal; pEC50, Tango (fold over basal) (MRGPRX2): 4.98
DRMPCRNFFWKTFSSCK (disulfide) [Peptide 121]	–	–	4.96	–	SST2	–
KPLRKDENGTSVAEYPMSASQSNKGVDVNNAVV [Peptide 193]	–	–	9.32	–	–	Emax, Tango (fold over basal) (MAS1): 1.3 fold over basal
YGGFLRRIRPKLKWDNQ [Peptide 119]	–	–	5.04	kappa	kappa, mu	–
